For nine compounds, % of control and % of inhibition results are on record in ChEMBL document CHEMBL5465560, “Selectivity Literature for EUbOPEN Chemogenomic Library” (2024).

SMILES strings stand for the structures.

The target of assay [1] is Serine/threonine-protein kinase MARK2 (Homo sapiens) (UniProt Q7KZI7). As to the kind of experiment: Selectivity interaction (KinomeScan (DiscoverX)) EUB0000666a MARK2. The following applies: at 10 µM.
The target of assay [2] is Dual specificity protein kinase CLK2 (Homo sapiens, UniProt P49760). As to the kind of experiment: Selectivity interaction (KinomeScan (DiscoverX)) EUB0000666a CLK2. The following applies: at 10 µM.
For assay [3], the target named is SRSF protein kinase 3 (Homo sapiens) (UniProt Q9UPE1). As to the kind of experiment: Selectivity interaction (KinomeScan (DiscoverX)) EUB0000666a SRPK3. The following applies: at 10 µM.
Assay [4] deals with Epidermal growth factor receptor (Homo sapiens), P00533 [UNDEFINED MUTATION]. As to the kind of experiment: Selectivity interaction (KinomeScan (DiscoverX)) EUB0001079a EGFR. The following applies: at 1 µM.
In assay [5] the target is Tyrosine-protein kinase ABL2 (Homo sapiens, UniProt P42684). As to the kind of experiment: Selectivity interaction (ActivX KiNativ screen (ex vivo kinase selectivity in human PBMCs)) EUB0001619a ABL2. It counts as cell-based. The following applies: PBMC, at 1 µM.
Assay [6] concerns the target 5'-AMP-activated protein kinase catalytic subunit alpha-1 (Homo sapiens, UniProt Q13131). As to the kind of experiment: Selectivity interaction (ActivX KiNativ screen (kinase selectivity in THP-1 cell lysates)) EUB0000639a PRKAA1. It counts as subcellular. The following applies: lysate, at 0.2 µM.
Assay [7] deals with Serine/threonine-protein kinase pim-2 (Homo sapiens, UniProt Q9P1W9). As to the kind of experiment: Selectivity interaction (KinomeScan (DiscoverX)) EUB0000695a PIM2. The following applies: at 100 nM.
Assay [8] addresses Phosphatidylinositol 4-phosphate 5-kinase type-1 alpha (Homo sapiens) (UniProt Q99755). In words: Selectivity interaction (ProQinase) EUB0000171b PIP5K1A.
In assay [9] the target is T1, Myotonin-protein kinase (Homo sapiens) (UniProt Q09013).
T1 sequence (whole entry): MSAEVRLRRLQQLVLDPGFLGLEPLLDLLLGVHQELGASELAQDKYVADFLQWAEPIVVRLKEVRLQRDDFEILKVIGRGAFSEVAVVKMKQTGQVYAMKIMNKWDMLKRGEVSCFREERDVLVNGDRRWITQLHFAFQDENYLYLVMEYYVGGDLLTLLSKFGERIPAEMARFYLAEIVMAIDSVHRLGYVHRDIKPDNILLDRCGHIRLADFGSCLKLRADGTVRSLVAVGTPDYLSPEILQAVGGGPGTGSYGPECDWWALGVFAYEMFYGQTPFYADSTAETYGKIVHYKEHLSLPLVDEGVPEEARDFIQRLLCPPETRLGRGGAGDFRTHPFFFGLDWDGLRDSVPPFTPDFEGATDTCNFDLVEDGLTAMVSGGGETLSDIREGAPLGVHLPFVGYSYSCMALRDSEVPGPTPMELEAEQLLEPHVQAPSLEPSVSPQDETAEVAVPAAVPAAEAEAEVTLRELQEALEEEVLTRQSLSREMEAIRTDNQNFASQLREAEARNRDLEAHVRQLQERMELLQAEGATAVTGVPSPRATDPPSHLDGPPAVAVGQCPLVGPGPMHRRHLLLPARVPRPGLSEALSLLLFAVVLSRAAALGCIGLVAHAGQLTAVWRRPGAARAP
In words: Selectivity interaction (KinomeScan (DiscoverX)) EUB0000045b DMPK.

For assay [10], the target named is Serine/threonine-protein kinase MRCK beta (Homo sapiens) (UniProt Q9Y5S2). In words: Selectivity interaction (Upstate Kinase Profiler service (Millipore)) EUB0000056c CDC42BPB. The following applies: at 1 µM.
Assay [11] deals with Serine/threonine-protein kinase SBK1 (Homo sapiens) (UniProt Q52WX2). In words: Selectivity interaction (KinomeScan (DiscoverX)) EUB0000595a SBK1. The following applies: at 10 µM.
In assay [12] the target is T2, Ephrin type-B receptor 2 (Homo sapiens) (UniProt P29323).
T2 sequence (whole entry): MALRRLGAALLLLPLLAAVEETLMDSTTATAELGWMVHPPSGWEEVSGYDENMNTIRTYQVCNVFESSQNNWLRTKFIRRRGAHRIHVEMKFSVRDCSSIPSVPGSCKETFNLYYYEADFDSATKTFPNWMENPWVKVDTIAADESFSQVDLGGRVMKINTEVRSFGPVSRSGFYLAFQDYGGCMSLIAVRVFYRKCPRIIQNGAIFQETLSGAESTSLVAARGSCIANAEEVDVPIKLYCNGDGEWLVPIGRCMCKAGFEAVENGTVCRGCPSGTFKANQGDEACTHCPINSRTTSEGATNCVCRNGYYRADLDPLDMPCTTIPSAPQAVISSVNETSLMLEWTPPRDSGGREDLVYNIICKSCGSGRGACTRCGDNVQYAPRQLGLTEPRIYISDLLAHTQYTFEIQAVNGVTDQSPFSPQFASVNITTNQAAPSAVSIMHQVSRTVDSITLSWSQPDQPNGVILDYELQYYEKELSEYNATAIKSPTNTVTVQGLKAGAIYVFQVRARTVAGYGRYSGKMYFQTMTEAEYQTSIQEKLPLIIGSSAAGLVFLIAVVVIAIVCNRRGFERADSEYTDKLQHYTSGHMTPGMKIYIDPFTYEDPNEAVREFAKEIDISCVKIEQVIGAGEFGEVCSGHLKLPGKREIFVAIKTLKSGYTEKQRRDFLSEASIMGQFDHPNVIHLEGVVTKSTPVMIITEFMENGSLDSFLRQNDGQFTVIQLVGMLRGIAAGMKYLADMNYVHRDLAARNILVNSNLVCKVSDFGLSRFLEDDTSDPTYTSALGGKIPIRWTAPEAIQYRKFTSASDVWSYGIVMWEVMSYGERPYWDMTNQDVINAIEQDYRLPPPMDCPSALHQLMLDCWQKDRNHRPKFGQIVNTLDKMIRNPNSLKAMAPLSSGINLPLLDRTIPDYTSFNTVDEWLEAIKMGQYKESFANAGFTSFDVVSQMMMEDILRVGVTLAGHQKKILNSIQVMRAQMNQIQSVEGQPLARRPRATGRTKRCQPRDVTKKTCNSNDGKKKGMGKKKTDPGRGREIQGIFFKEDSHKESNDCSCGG
As to the kind of experiment: Selectivity interaction (KinomeScan (DiscoverX)) EUB0000595a EPHB2. The following applies: at 10 µM.

Sequence of Phosphatidylinositol 4-phosphate 5-kinase type-1 alpha (Homo sapiens) (Q99755 whole entry): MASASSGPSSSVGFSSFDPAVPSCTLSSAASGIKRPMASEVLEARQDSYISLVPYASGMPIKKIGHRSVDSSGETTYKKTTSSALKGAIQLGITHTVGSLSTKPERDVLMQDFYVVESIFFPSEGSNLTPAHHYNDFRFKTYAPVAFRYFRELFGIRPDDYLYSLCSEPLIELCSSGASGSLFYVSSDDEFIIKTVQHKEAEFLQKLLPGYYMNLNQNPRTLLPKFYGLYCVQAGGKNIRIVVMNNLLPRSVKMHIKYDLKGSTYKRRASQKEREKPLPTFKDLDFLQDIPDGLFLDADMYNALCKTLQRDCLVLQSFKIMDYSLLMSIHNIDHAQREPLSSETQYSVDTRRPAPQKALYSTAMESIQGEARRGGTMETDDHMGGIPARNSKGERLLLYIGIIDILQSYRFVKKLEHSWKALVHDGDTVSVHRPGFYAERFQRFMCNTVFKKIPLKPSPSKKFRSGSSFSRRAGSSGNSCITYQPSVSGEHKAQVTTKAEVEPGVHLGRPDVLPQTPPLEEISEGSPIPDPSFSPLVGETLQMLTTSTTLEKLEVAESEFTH
Sequence of Tyrosine-protein kinase ABL2 (P42684 whole entry): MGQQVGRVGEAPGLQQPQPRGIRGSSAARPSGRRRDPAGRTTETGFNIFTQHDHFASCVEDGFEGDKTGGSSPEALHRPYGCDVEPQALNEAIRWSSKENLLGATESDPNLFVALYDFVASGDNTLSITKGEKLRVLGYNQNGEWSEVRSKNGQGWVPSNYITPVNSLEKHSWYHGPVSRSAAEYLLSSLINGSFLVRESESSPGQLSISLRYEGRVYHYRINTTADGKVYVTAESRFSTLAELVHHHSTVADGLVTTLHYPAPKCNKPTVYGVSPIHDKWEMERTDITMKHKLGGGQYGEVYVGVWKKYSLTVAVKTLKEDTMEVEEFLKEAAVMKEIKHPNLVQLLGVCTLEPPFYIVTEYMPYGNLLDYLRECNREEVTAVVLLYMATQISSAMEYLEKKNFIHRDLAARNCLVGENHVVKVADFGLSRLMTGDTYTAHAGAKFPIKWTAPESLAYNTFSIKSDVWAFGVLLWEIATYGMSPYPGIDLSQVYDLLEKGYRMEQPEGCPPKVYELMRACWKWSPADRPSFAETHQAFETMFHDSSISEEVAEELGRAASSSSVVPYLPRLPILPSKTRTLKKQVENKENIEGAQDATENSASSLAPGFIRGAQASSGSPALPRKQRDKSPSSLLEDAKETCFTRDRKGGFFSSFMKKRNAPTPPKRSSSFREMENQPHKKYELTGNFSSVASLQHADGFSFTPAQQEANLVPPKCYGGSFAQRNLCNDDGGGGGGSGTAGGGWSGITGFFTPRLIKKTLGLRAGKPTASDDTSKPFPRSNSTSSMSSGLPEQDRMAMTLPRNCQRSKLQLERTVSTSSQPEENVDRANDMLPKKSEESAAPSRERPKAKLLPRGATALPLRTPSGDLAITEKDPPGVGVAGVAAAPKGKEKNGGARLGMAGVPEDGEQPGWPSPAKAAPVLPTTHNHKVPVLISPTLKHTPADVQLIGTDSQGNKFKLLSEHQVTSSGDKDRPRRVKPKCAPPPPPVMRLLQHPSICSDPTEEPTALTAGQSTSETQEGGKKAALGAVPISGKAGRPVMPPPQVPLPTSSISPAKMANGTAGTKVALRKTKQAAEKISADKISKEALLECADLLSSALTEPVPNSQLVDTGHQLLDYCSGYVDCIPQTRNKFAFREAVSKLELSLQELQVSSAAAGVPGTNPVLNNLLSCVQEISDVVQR
Sequence of Epidermal growth factor receptor (Homo sapiens), P00533 [UNDEFINED MUTATION] (P00533 whole entry, looked up, change not shown): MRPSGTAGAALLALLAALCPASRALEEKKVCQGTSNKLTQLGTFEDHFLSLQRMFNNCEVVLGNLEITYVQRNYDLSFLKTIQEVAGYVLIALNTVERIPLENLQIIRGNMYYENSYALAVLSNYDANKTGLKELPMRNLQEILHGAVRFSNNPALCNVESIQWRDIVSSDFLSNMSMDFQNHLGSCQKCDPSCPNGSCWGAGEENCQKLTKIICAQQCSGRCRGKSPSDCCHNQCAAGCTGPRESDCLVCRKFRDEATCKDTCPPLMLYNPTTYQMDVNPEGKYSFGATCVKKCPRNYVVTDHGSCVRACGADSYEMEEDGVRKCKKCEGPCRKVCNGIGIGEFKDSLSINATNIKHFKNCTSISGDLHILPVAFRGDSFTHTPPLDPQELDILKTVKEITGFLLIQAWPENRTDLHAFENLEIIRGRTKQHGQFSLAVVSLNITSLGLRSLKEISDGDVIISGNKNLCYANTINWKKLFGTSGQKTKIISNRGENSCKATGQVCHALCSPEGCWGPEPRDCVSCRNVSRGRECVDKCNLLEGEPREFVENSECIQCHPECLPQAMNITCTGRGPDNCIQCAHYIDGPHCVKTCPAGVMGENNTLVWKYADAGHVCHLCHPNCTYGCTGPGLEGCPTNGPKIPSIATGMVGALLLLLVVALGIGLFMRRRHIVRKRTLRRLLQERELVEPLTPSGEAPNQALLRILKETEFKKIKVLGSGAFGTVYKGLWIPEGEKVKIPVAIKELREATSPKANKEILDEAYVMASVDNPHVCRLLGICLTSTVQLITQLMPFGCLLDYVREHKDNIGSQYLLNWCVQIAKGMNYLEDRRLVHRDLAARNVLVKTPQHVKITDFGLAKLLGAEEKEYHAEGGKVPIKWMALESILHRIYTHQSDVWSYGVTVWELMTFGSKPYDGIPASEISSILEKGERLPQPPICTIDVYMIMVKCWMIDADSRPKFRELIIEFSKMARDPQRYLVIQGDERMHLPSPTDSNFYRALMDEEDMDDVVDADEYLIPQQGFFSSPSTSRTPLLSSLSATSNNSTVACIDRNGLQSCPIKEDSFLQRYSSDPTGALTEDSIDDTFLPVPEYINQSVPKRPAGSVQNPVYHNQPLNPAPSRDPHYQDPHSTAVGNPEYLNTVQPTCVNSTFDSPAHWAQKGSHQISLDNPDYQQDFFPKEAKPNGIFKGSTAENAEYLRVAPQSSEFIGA
Sequence of Serine/threonine-protein kinase MARK2 (Homo sapiens) (Q7KZI7 whole entry): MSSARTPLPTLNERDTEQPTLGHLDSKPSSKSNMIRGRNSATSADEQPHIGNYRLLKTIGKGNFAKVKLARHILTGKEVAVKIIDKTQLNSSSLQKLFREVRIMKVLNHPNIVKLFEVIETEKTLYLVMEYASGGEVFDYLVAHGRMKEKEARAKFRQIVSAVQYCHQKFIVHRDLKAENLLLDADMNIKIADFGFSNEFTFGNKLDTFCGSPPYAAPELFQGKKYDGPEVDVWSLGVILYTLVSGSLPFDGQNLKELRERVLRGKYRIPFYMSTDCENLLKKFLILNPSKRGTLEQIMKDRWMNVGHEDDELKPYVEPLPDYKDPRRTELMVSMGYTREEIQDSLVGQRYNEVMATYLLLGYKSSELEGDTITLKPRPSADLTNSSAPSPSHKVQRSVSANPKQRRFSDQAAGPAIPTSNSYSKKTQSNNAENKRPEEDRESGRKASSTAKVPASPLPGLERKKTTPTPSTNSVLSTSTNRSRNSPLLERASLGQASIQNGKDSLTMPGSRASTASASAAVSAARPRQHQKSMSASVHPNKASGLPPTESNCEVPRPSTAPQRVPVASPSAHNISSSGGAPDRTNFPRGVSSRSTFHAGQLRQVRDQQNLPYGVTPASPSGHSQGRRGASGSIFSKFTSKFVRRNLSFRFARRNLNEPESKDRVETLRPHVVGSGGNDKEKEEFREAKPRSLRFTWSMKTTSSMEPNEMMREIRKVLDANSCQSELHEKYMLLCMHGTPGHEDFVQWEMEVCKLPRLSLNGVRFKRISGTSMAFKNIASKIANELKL
Sequence of 5'-AMP-activated protein kinase catalytic subunit alpha-1 (Q13131 whole entry, looked up): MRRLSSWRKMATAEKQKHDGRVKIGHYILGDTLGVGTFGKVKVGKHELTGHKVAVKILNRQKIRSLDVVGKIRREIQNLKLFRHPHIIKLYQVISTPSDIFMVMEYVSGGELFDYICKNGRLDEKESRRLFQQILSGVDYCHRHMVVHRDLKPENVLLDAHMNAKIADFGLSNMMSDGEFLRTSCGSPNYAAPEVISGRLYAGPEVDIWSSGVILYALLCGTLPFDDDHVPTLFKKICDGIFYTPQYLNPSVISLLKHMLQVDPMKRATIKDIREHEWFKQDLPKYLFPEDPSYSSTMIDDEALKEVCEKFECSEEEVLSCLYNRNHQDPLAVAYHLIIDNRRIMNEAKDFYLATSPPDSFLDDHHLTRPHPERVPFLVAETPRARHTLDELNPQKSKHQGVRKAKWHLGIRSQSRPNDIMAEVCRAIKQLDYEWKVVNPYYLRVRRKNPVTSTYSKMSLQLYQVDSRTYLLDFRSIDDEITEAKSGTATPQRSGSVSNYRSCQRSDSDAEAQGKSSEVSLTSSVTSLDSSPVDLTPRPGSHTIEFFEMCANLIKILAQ
Sequence of Serine/threonine-protein kinase pim-2 (Q9P1W9 whole entry, looked up): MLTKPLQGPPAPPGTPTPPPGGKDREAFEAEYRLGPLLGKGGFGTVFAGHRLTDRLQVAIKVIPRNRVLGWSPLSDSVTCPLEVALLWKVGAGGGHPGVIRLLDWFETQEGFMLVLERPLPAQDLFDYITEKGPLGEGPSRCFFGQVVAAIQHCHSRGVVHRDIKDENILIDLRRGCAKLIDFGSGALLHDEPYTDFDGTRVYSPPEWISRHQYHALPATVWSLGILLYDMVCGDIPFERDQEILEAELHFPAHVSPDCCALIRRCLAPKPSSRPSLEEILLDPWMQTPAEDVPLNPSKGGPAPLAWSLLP
Sequence of Serine/threonine-protein kinase SBK1 (Homo sapiens) (Q52WX2 whole entry): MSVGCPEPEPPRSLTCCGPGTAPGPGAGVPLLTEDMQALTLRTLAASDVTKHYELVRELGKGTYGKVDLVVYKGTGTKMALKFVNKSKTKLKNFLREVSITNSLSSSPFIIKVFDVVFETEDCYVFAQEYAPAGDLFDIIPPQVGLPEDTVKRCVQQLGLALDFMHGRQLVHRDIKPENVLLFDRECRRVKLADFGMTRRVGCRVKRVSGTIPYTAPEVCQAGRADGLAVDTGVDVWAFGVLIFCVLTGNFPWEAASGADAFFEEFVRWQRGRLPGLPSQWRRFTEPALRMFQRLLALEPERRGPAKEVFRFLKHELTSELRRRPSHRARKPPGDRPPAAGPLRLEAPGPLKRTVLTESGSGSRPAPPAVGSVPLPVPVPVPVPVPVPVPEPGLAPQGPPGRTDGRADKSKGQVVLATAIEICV

`O=C(NOC[C@H](O)CO)c1ccc(F)c(F)c1Nc1ccc(I)cc1F`: the % of control is 100% in assay [1], 96% in [2] and 100% in [3].

For the compound `Nc1cnc(N2CCc3cc(S(=O)(=O)Nc4c(F)cc(Cl)cc4F)cc(N4CCCC4=O)c32)nc1` [TP-020n], in assay [4], the % of control stood at 100%.

Regarding `N#Cc1cccc(-c2c[nH]c3ncnc(N4CCOCC4)c23)c1`, in assay [5], the % of inhibition is -1%.

As to `CC[C@@H]1[C@H](F)C(=O)N[C@@H]1COc1nccc2cc(C(N)=O)c(OC)cc12` [ZIMLOVISERTIB], the % of inhibition in assay [6] is -4.3%.

For `Cc1cc(F)c(C(=O)Nc2cccc(-c3nncn3C(C)C)n2)cc1-n1cnc(C2CC2)c1`, the % of control in [7] stood at 78%.

Regarding `C=CC(=O)Nc1cccc(C(=O)Nc2ccc(Nc3cc(-c4[nH]c(SC)nc4C)ccn3)cc2)c1`, the % of control worked out at 102% in [8] (at 1 µM) and 44% in [8] (at 5 µM).

In the case of `C=CC(=O)Nc1cc(-n2c(=O)ccc3cnc4ccc(-c5ccc(NS(C)(=O)=O)cc5)cc4c32)ccc1C`, the values for the % of control in assay [9] (at 1 µM) and in [9] (at 10 µM) were 91% and 100%, respectively.

Take `Cc1ccc(-c2ccc3c(ccc4sc5c(c43)NC[C@@H](C)NC5=O)n2)cn1`: the % of inhibition in assay [10] was 4%.

As to `COCC(=O)NC/C=C/c1ccc2ncnc(Nc3ccc(Oc4ccc(C)nc4)c(C)c3)c2c1` [CP-724714], the % of control in assay [11] and in assay [12] was 100% in each case.
